Results as given in patent publication US4349526A, “Process for the production of hydrogen peroxide” (Degussa Aktiengesellschaft, priority 1980, dated 1982).

How the values were obtained:
[1] = Oxidation breakdown on gassing with dry air at 140° C., 2.5 hours; assay type: physicochemical; settings: 36 liters dry air per hour, 150 ml urea, decrease of urea based on starting content
Description: In a gassing apparatus equipped with gassing frit and intensive condenser in each case gassing was carried out with 150 ml of the ureas set forth in Table 4 using 36 liters of dry air per hour at a temperature of 140° C. for 2.5 hours. During the test half hourly samples were drawn off and the oxidative breakdown followed by means of capillary gas chromatography. As a measure for the oxidative breakdown the decrease of the amount of urea in percentage based on the starting urea content is used.

[2] = Oxidation resistance of hydroquinone solvents, gassing with dry air at 140° C., 50 hours; assay type: physicochemical; settings: 36 liters dry air per hour, 150 ml solvent; gas chromatography
Description: The hydroquinone solvent content in percent based on the starting hydroquinone content was determined gas chromatographically and set forth in Table 5.

[3] = Density; assay type: physicochemical
[4] = in words; German AS; cited from earlier work
[5] = Mutual solubility of urea and water; assay type: physicochemical
[6] = Viscosity; assay type: physicochemical

Molecule	Oxidation Breakdown After 2.5 hours [1] [%]	Hydroquinone Solvent Content (%) after 50 hours Gassing at 140° C. [2] [%]	further results
CC(C)N(C(=O)N(C)c1ccccc1)C(C)C [N,N-di-i-propyl-N'-methyl-N'-phenylurea]	0	–	–
CC(C)CC(O)CC(C)C [di-i-butylcarbinol]	–	16.6	–
CCN(CC)C(=O)N(C)c1ccccc1 [N,N-diethyl-N'-methyl-N'-phenylurea]	0	–	Density (50° C.) ([3]; Table 2): 0.9941 g/mL
CN(C)C(=O)N(C)c1ccccc1 [N,N,N'-trimethyl-N'-phenylurea]	0	–	Density (50° C.) ([3]; Table 2): 1.0392 g/mL
CC(C)(C)c1ccccc1 [tert. butyl benzene]	–	–	oxidation resistance [4]: oxidation resistant
N,N-di-i-propyl-N'-phenylurea	–	100.0	–
CC(C)N(C(=O)N(C)C)C(C)C [N,N-dimethyl-N'-di-i-propylurea, reference compound]	2.6	–	–
CCCCC(CC)COP(=O)(OCC(CC)CCCC)OCC(CC)CCCC (stereo not drawn) [tris-2-ethylhexyl phosphate]	–	88.3	–
methylcyclohexyl acetate	–	77.4	–

Further lines, with some results ahead:

Oxidation Breakdown After 2.5 hours [1] [%]	Hydroquinone Solvent Content (%) after 50 hours Gassing at 140° C. [2] [%]	Molecule	further results
0	–	CCC(C)N(C)C(=O)N(C)c1ccccc1 (stereo not drawn) [N,N'-dimethyl-N-s-butyl-N'-phenylurea]	–
9.2	86.6	CCCCN(CCCC)C(=O)N(CC)CC [N,N-diethyl-N',N'-dibutylurea, reference compound]	–
0	–	CN(C(=O)N1CCOCC1)c1ccccc1 [N'-methyl-N'-phenylcarbamoyl-N-morpholine]	–
0	100.0	CCCN(CCC)C(=O)N(C)c1ccccc1 [N,N-dipropyl-N'-methyl-N'-phenylurea]	Density (50° C.) ([3]; Table 2): 0.9690 g/mL
0	100.0	CCCCN(CCCC)C(=O)N(C)c1ccccc1 [N,N-dibutyl-N'-methyl-N'-phenylurea]	Solubility in Water at 20° C. [5]: 0.01%; Viscosity (50° C.) [6]: 9.2 cP; Density (50° C.) ([3]; Table 2): 0.9499 g/mL; Density (50° C.) ([3]; Table 3): 0.950 g/mL
